Entries after “also recorded” stand apart in the source; their conditions may differ. Read-outs that look alike come from different tables or passages of the source.
Assays:
[1] = T1 relaxivity at 20 MHz, 37°C; assay type: physicochemical
Description: c) Gadolinium-Komplex von 10-[2-Hydroxy-4-aza-5-oxo-7-aza-7-(perfluoroctylsulfonyl)-nonyl]-1,4,7-tris(carboxymethyl)-1,4,7,10-tetraazacyclododecan 10 g (17,09 mmol) der Titelverbindung aus Beispiel 1b) und […] (18,79 mmol) N-Hydroxysuccinimid werden in einer Mischung aus 50 ml Dimethylformamid/50 ml Chloroform gelöst. Bei 0°C gibt man 3,88 g (18,79 mmol) Dicyclohexylcarbodiimid zu und rührt 1 Stunde bei 0°C, anschließend 3 Stunden bei Raumtemperatur. Man kühlt erneut auf 0°C und gibt 5,19 g (51,27 mmol) Triethylamin/50 ml 2-Propanol zu. Anschließend werden 10,78 g (18,79 mmol) Gadolinium-Komplex von 10-(3-Amino-2-hydroxy-propyl)-1,4,7-tris(carboxymethyl)-1,4,7,10-tetraazacyclododecan (WO 95/17451) gelöst in 50 ml Wasser zugegeben und 3 Stunden bei Raumtemperatur gerührt. Man dampft zur Trockne ein, nimmt den Rückstand in einer Mischung aus 200 ml Methanol/100 ml Chloroform auf und filtriert vom Dicyclohexylharnstoff ab. Das Filtrat wird zur Trockne eingedampft und durch RP-Chromatographie gereinigt (RP-18/Laufmittel: Gradient aus Wasser/n-Propanol/ Acetonitril). Ausbeute: 16,37 g (78 % d. Th.) eines farblosen glasigen Feststoffes Wassergehalt: 7,1 % T1-Relaxivität (L/mmol·sec) bei 20 MHz, 37°C: 41 (Wasser) 49 (Humanplasma)
e) Mangan-Komplex von 10-[2-Hydroxy-4-aza-5-oxo-7-aza-7-(perfluoroctylsulfonyl)-nonyl]-1,4,7-tris(carboxymethyl)-1,4,7,10-tetraazacyclododecan (als Natriumsalz) 5 g (5,07 mmol) der Titelverbindung aus Beispiel ld) werden in 100 ml Wasser gelöst und 0,58 g (5,07 mmol) Mangan(II) -carbonat zugegeben. Man rührt3 Stunden bei 80°C. Die Lösung wird filtriert und das Filtrat mit 1 N Natronlauge auf pH 7,2 gestellt, anschließend wird gefriergetrocknet. Ausbeute: 5,87 g (quantitativ) eines farblosen amorphen Pulvers Wassergehalt: 8,4 % T1-Relaxivität (L/mmol·sec) bei 20 MHz, 37°C: 2,7 (Wasser) 4,2 (Humanplasma)
c) Gadolinium-Komplex von 10-[2-Hydroxy-4-aza-5-oxo-7-oxa-10,10,11,11,12,12,13,13,14,14,15,15,16,16,17,17,17-heptadecafluor-heptadecyl]-1,4,7-tris(carboxymethyl)-1,4,7,10-tetraazacyclododecan 7,0 g (13,41 mmol) der Titelverbindung aus Beispiel 2b) und 1,70 g (14,75 mmol) N-Hydroxysuccinimid werden in einer Mischung aus 30 ml Dimethylformamid/ 20 ml Chloroform gelöst. Bei 0°C gibt man 3,04 g (14,75 mmol) Dicyclohexylcarbodiimid zu und rührt 1 Stunde bei 0°C, anschließend 3 Stunden bei Raumtemperatur. Man kühlt erneut auf 0°C und gibt 4,48 g (44,25 mmol) Triethylamin/50 ml 2-Propanol zu. Anschließend werden 8,46 g (14,75 mmol) Gadolinium-Komplex von 10-(3-Amino-2-hydroxy-propyl)-1,4,7-tris(carboxymethyl)-1,4,7,10-tetraazacyclododecan gelöst in 40 ml Wasser zugegeben und 3 Stunden bei Raumtemperatur gerührt. Man dampft zur Trockne ein, nimmt den Rückstand in einer Mischung aus 100 ml Methanol/30 ml Chloroform auf und filtriert vom Dicyclohexylharnstoff ab. Das Filtrat wird zur Trockne eingedampft und durch RP-Chromatographie gereinigt (RP-18/Laufmittel: Gradient aus Wasser/n-Propanol/Acetonitril). Ausbeute: 11,8 g (75 % d. Th.) eines farblosen glasigen Feststoffes Wassergehalt: 8,2 % T1-Relaxivität (L/mmol·sec) bei 20 MHz, 37°C: 19 (Wasser) 33 (Humanplasma)
c) Gadolinium-Komplex von 10-[-2Hydroxy-4-oxa-1H,1H,2H,3H,3H,5H,5H,6H,6H-perfluor-tetradecyl]-1,4,7-tris(carboxymethyl)-1,4,7,10-tetraazacyclododecan 10 g (11,54 mmol) der Titelverbindung aus Beispiel 3b) werden in einer Mischung aus 100 ml Wasser/50 ml 2-Propanol gelöst und 2,09 g (5,77 mmol) Gadoliniumoxid zugegeben. Man rührt 3 Stunden bei 80°C. Die Lösung wird filtriert und im Vakuum zur Trockne eingedampft. Ausbeute: 12,48 g (quantitativ) eines glasigen Feststoffes Wassergehalt: 5,6 % T1-Relaxivität (L/mmol·sec) bei 20 MHz, 37°C: 15,2 (Wasser) 27,5 (Humanplasma)

[2] = for Konsistenz mit Zusatz von Harnstoff: 8 mol/L Harnstoff (final), also at substance concentration 400 mmol/L; for Löslichkeit in 96% Ethanol / Löslichkeit in 66% DMSO/Wasser / Löslichkeit in 66% Propylenglycol/Wasser: free-flowing solution; for Löslichkeit in Rinderplasma: solution of comparable consistency; for Einfluß auf die Konsistenz der Zubereitung: addition of 10 mmol/L HCl or NaOH, or 3 mol/L NaCl; for Veränderung der Konsistenz durch Triton X-100 / Veränderung der Konsistenz durch Tween 80: aqueous formulation; for Veränderung der Konsistenz durch Triton X-100: Triton X-100, 1.7%; for Veränderung der Konsistenz durch Tween 80: Tween 80, 4.6% final concentration; for Löslichkeit in 66% DMSO/Wasser / Löslichkeit in 66% Propylenglycol/Wasser: gut löslich at this concentration; for concentration below which a frei fließende Lösung results: in water, printed as 'Unterhalb von etwa'; for Löslichkeit in reinem DMSO: pure DMSO; for Löslichkeit in reinem Propylenglycol: pure Propylenglycol
[3] = test system: Lebergefäße am Kaninchen; assay: Embolisation of the liver vessels in the rabbit, followed by X-ray; assay type: in vivo
Description: Als gut darstellbare Gefäße wurden die Lebergefäße am Kaninchen embolisiert.
Dem narkotisierten Tier wurde ein Katheter (60 cm lang, 1,5 mm Øa) über die A. femoralis bis in die Leberarterie durch die Aorta vorgeschoben. Die Lösung von Gadoliniumkomplex aus Beispiel 1c) (50 mmol/L mit 150 mg J/ml Isovist ®) wurde mit 160 µL/min appliziert. Gesamtvolumen 800 µL. Anschließend wurde der Katheter in die Aorta zurückgezogen, um die arterielle Blutversorgung der Leber im weiteren Verlauf nicht zu beeinträchtigen. […] Zum Teil ist die Abnahme der Signalintensität auf ein Herausdiffündieren des Röntgenkontrastmittels Isovist ® zurückzuführen.

[4] = test system: Nierengefäße der Ratte; assay: Embolisation of the renal vessels in the rat, followed by X-ray; assay type: in vivo
Description: Als gut darstellbare Gefäße wurden die Nierengefäße der Ratte embolisiert.
Dem Tier wurde ein Katheter (20 cm lang, 0,58 mm Øi in die A. mesentrerica eingebunden und in die A. renalis der linken Niere vorgeschoben. Die Lösung der Verbindung aus Beispiel 1 c) (hier 50 mmol/1 mit 150 mg J/ml Isovist ®) wurde mit 160 µl/min appliziert. Gesamtvolumen 250 µl. Anschließend wurde der Katheter in die A. mesenterica zurückgezogen, um die Blutversorgung der Nieren im weiteren Verlauf nicht zu beinträchtigen. […] Zur Kontrolle der Nierendurchblutung wurde 1 Stunde nach der lokalen Applikation der Verbindung aus Beispiel lc) 400 µl des nierengängigen Röntgenkontrastmittels Ultravist ® 300 mg J/ml i.v. in die Schwanzvene gegeben.
Direkt nach intraarterieller, lokaler Gabe von 250 µl einer Lösung der Verbindung aus Beispiel 1 c) (50 mmol/L + 150 mg J/ml Isovist ® )in die katherisierte Nierenarterie (linke Niere, im Bild rechts)
5' p.a. Ultravist ®, 400 µl i.v. 1 Stunde nach lokaler Gabe der Verbindung aus Beispiel 1c) wurde Ultravist ® über die Schwanzvene gegeben.

[5] = test system: VX-2 Tumorzellen; assay: Therapy of a liver carcinoma in the rabbit (chemoembolisation, MRI control); assay type: in vivo, Chinchilla-Kaninchen; conditions: rabbit VX-2 liver tumour, 75 mmol/l solution with 50 mg Cisplatin, 8 ml via catheter, MRI after 7 days; control animals 3,7 ± 1,5
Description: Fünf männlichen Chinchilla-Kaninchen wurde durch Injektion von VX-2 Tumorzellen in den linken Leberlappen ein Tumor gesetzt. Dem narkotisiertem Tier wurde ein Katheter (60 cm lang, 1 mm Øa) über die Arteria femoralis bis in die Nähe des Tumors vorgeschoben. Dann wurde eine Lösung der Titelverbindung aus Beispiel 1 c [75 mmol/l mit 50 mg Cisplatin (=[…]) appliziert. Gesamtvolumen 8 ml.
Anschließend wurde der Katheter entfernt. Nach 7 Tagen wurden die Tiere mittels MRI untersucht. Es zeigte sich, daß der Tumor sich in seiner Größe verringert hat (durchschnittlicher Wachstumsfaktor 0,8 ± 0,2). Bei den Kontrolltieren (3 Tiere) wurden jedoch Wachstumsraten von 3,7 ± 1,5 beobachtet.

[6] = 100 mmol/L in water, by hand or infusion pump through a 20 cm, 0.58 mm Øi tube at 160 µL/min

Structure (SMILES): O=C([O-])CN1CCN(CC(=O)[O-])CCN(CC(O)CNC(=O)COCCC(F)(F)C(F)(F)C(F)(F)C(F)(F)C(F)(F)C(F)(F)C(F)(F)C(F)(F)F)CCN(CC(=O)[O-])CC1.[Gd+3] (stereo not drawn) [2c), Gadolinium-Komplex von 10-[2-Hydroxy-4-aza-5-oxo-7-oxa-10,10,11,11,12,12,13,13,14,14,15,15,16,16,17,17,17-heptadecafluor-heptadecyl]-1,4,7-tris(carboxymethyl)-1,4,7,10-tetraazacyclododecan]
- T1-Relaxivität ([1]; Humanplasma): 33 L/mmol/s
- T1-Relaxivität ([1]; Wasser): 19 L/mmol/s

Structure (SMILES): CCN(CCCCCCCCCCC(=O)NCC(O)CN1CCN(CC(=O)[O-])CCN(CC(=O)[O-])CCN(CC(=O)[O-])CC1)S(=O)(=O)C(F)(F)C(F)(F)C(F)(F)C(F)(F)C(F)(F)C(F)(F)C(F)(F)C(F)(F)F.[Dy+3] (stereo not drawn) [Beispiel 30f)]
- Applizierbarkeit der Lösung [2, 6]: problemlos
- Konsistenz der Lösung ([2]; 100 mmol/L solution in water): klar durchsichtig und besitzt eine gelartig feste Konsistenz
- Konsistenz mit Zusatz von Harnstoff [2]: frei fließende Lösung
- Löslichkeit in 96% Ethanol [2]: > 500 mmol/L
- Löslichkeit in Rinderplasma [2]: ebenso löslich wie in reinem Wasser
- Einfluß auf die Konsistenz der Zubereitung [2]: keinen Einfluß auf die Konsistenz
- Veränderung der Konsistenz durch Triton X-100 [2]: Verflüssigung der gelartigen Konsistenz
- Veränderung der Konsistenz durch Tween 80 [2]: keine Veränderung der Konsistenz
- Löslichkeit in 66% DMSO/Wasser [2]: ≥ 150 mmol/L
- Löslichkeit in 66% Propylenglycol/Wasser [2]: ≥ 250 mmol/L
- concentration below which a frei fließende Lösung results [2]: 10000 to 20000 µM
- Löslichkeit in reinem DMSO [2]: praktisch unlöslich
- Löslichkeit in reinem Propylenglycol [2]: praktisch unlöslich

Structure (SMILES): CCN(CC(=O)NCC(O)CN1CCN(CC(=O)[O-])CCN(CC(=O)[O-])CCN(CC(=O)[O-])CC1)S(=O)(=O)C(F)(F)C(F)(F)C(F)(F)C(F)(F)C(F)(F)C(F)(F)C(F)(F)C(F)(F)F.[Mn+2].[Na+] (stereo not drawn) [Beispiel 1e), Mangan-Komplex von 10-[2-Hydroxy-4-aza-5-oxo-7-aza-7-(perfluoroctylsulfonyl)-nonyl]-1,4,7-tris(carboxymethyl)-1,4,7,10-tetraazacyclododecan (als Natriumsalz)]
- T1-Relaxivität ([1]; Humanplasma): 4,2 L/mmol·sec
- T1-Relaxivität ([1]; Wasser): 2,7 L/mmol·sec

Structure (SMILES): CCN(CC(=O)NCC(O)CN1CCN(CC(=O)[O-])CCN(CC(=O)[O-])CCN(CC(=O)[O-])CC1)S(=O)(=O)C(F)(F)C(F)(F)C(F)(F)C(F)(F)C(F)(F)C(F)(F)C(F)(F)C(F)(F)F.[Gd+3] (stereo not drawn) [Beispiel 1c), Gadolinium-Komplex von 10-[2-Hydroxy-4-aza-5-oxo-7-aza-7-(perfluoroctylsulfonyl)-nonyl]-1,4,7-tris(carboxymethyl)-1,4,7,10-tetraazacyclododecan]
- T1-Relaxivität ([1]; Humanplasma): 49 L/mmol/s
- T1-Relaxivität ([1]; Wasser): 41 L/mmol/s
- Abgrenzung der Gefäße der Leber in Röntgenaufnahmen ([3]; 800 µL of 50 mmol/L solution with 150 mg J/ml Isovist into liver artery at 160 µL/min): scharf gegenüber dem Leberparenchym abgegrenzt
- Signalintensität der Gefäße in der Leber ([3]; within 60 minutes after administration): nur langsam ab
- Applizierbarkeit der Lösung ([2]; 100 mmol/1 in water with 100 mg J/ml Isovist, 20 cm, 0,58 mm Øi tube at 160 µl/min): problemlos
- Konsistenz der Lösung ([2]; 100 mmol/1 solution in water with 100 mg J/ml Isovist): klar durchsichtig und besitzt eine gelartig feste Konsistenz
- Applizierbarkeit der Lösung [2, 6]: problemlos
- Konsistenz der Lösung ([2]; 100 mmol/L solution in water): klar durchsichtig und besitzt eine gelartig feste Konsistenz
- Konsistenz mit Zusatz von Harnstoff [2]: frei fließende Lösung
- Löslichkeit in 96% Ethanol [2]: > 500 mmol/L
- Löslichkeit in Rinderplasma [2]: ebenso löslich wie in reinem Wasser
- Einfluß auf die Konsistenz der Zubereitung [2]: keinen Einfluß auf die Konsistenz
- Veränderung der Konsistenz durch Triton X-100 [2]: Verflüssigung der gelartigen Konsistenz
- Veränderung der Konsistenz durch Tween 80 [2]: keine Veränderung der Konsistenz
- Löslichkeit in 66% DMSO/Wasser [2]: ≥ 150 mmol/L
- Löslichkeit in 66% Propylenglycol/Wasser [2]: ≥ 250 mmol/L
- concentration below which a frei fließende Lösung results [2]: 10000 to 20000 µM
- Löslichkeit in reinem DMSO [2]: praktisch unlöslich
- Löslichkeit in reinem Propylenglycol [2]: praktisch unlöslich
- Abgrenzung der Gefäße der linken Niere in Röntgenaufnahmen ([4]; 250 µl of 50 mmol/1 solution with 150 mg J/ml Isovist into A. renalis at 160 µl/min): scharf gegenüber dem Nierenparenchym abgegrenzt
- Enhancement der embolisierten linken Niere und ihres Harnleiters ([4]; 400 µl Ultravist 300 mg J/ml i.v. 1 hour after local application, non-embolised right kidney enhanced): kein Enhancement; also recorded: bleibt dunkel
- Signalintensität der Gefäße in der Niere ([4]; up to 45 minutes after administration, attributed to Isovist diffusing out): deutlich ab
- durchschnittlicher Wachstumsfaktor des Tumors [5]: 0,8 ± 0,2

Structure (SMILES): O=C([O-])CN1CCN(CC(=O)[O-])CCN(CC(O)COCCC(F)(F)C(F)(F)C(F)(F)C(F)(F)C(F)(F)C(F)(F)C(F)(F)C(F)(F)F)CCN(CC(=O)[O-])CC1.[Gd+3] (stereo not drawn) [3c), Gadolinium-Komplex von 10-[-2Hydroxy-4-oxa-1H,1H,2H,3H,3H,5H,5H,6H,6H-perfluor-tetradecyl]-1,4,7-tris(carboxymethyl)-1,4,7,10-tetraazacyclododecan]
- T1-Relaxivität ([1]; Humanplasma): 27,5 L/mmol·sec
- T1-Relaxivität ([1]; Wasser): 15,2 L/mmol·sec

From patent publication EP0882010B1, “PHARMACEUTICAL AGENTS CONTAINING PERFLUOROALKYL-CONTAINING METAL COMPLEXES AND THE USE THEREOF IN TUMOUR THERAPY AND INTERVENTIONAL RADIOLOGY” (SCHERING AKTIENGESELLSCHAFT, priority 1996, dated 1997)
